# Assay results taken from patent US7058616B1, “Method and system for predicting resistance of a disease to a therapeutic agent using a neural network” (Virco Bvba, priority 2000, dated 2006).
# Test system: HIV-1
# Assay: MT-4 cell viral cytopathic effect protection assay, phenotypic susceptibility of patient recombinant virus
# Format: cell-based
# Protocol: Phenotypic susceptibility was determined using a MT-4 cell viral cytopathic effect protection assay. See, e.g., Kashiwase et al., Chemotherapy 45(1):48–55 (1999), expressly incorporated herein by reference; Larder et al., Antimicrob. Agents Chemother. 43(8):1961–1967 (1999).
smiles,measurement,setting,value
Nc1nc(NC2CC2)c2ncn([C@H]3C=C[C@@H](CO)C3)c2n1 [1592 U89],actual phenotype resistance level,Table 3 testing sample 1,"S/S (A fold resistance of less than or equal to 4 is considered to be “sensitive,”)"
same,actual phenotype resistance level,Table 3 testing sample 2,"S (A fold resistance of less than or equal to 4 is considered to be “sensitive,”)"
same,actual phenotype resistance level,Table 3 testing sample 3,"S/S (A fold resistance of less than or equal to 4 is considered to be “sensitive,”)"
same,actual phenotype resistance level,Table 3 testing sample 4,"S/S (A fold resistance of less than or equal to 4 is considered to be “sensitive,”)"
same,actual phenotype resistance level,Table 3 testing sample 5,"S/S (A fold resistance of less than or equal to 4 is considered to be “sensitive,”)"
same,actual phenotype resistance level,Table 3 testing sample 6,"I (greater than 4 and less than 10 is considered to be “intermediate,”)"
same,actual phenotype resistance level,Table 3 testing sample 7,"S/S (A fold resistance of less than or equal to 4 is considered to be “sensitive,”)"
same,actual phenotype resistance level,Table 3 testing sample 8,"I (greater than 4 and less than 10 is considered to be “intermediate,”)"
same,actual phenotype resistance level,Table 3 testing sample 9,"S/S (A fold resistance of less than or equal to 4 is considered to be “sensitive,”)"
same,actual phenotype resistance level,Table 3 testing sample 10,"S/S (A fold resistance of less than or equal to 4 is considered to be “sensitive,”)"
Nc1ccn([C@H]2CC[C@@H](CO)O2)c(=O)n1 [DDC],actual phenotype resistance level,Table 3 testing sample 1,"S/S (A fold resistance of less than or equal to 4 is considered to be “sensitive,”)"
same,actual phenotype resistance level,Table 3 testing sample 2,"S/S (A fold resistance of less than or equal to 4 is considered to be “sensitive,”)"
same,actual phenotype resistance level,Table 3 testing sample 3,"S/S (A fold resistance of less than or equal to 4 is considered to be “sensitive,”)"
same,actual phenotype resistance level,Table 3 testing sample 4,"S/S (A fold resistance of less than or equal to 4 is considered to be “sensitive,”)"
same,actual phenotype resistance level,Table 3 testing sample 5,"S/S (A fold resistance of less than or equal to 4 is considered to be “sensitive,”)"
same,actual phenotype resistance level,Table 3 testing sample 6,"I (greater than 4 and less than 10 is considered to be “intermediate,”)"
same,actual phenotype resistance level,Table 3 testing sample 7,"S/S (A fold resistance of less than or equal to 4 is considered to be “sensitive,”)"
same,actual phenotype resistance level,Table 3 testing sample 8,"S (A fold resistance of less than or equal to 4 is considered to be “sensitive,”)"
same,actual phenotype resistance level,Table 3 testing sample 9,"S/S (A fold resistance of less than or equal to 4 is considered to be “sensitive,”)"
same,actual phenotype resistance level,Table 3 testing sample 10,"S/S (A fold resistance of less than or equal to 4 is considered to be “sensitive,”)"
CC(C)(C)NC(=O)[C@@H]1CN(Cc2cccnc2)CCN1C[C@@H](O)C[C@@H](Cc1ccccc1)C(=O)N[C@H]1c2ccccc2C[C@H]1O [Indinavir],actual phenotype resistance level,PI test sample 4,"R/R (if the value is greater than 10, it is considered to be ‘resistant’)"
same,actual phenotype resistance level,PI test sample 5,"R (if the value is greater than 10, it is considered to be ‘resistant’)"
same,actual phenotype resistance level,PI test sample 6,S/S (A fold resistance of less than or equal to 4 is considered to be ‘sensitive’)
same,actual phenotype resistance level,PI test sample 7,S/S (A fold resistance of less than or equal to 4 is considered to be ‘sensitive’)
same,actual phenotype resistance level,PI test sample 8,S/S (A fold resistance of less than or equal to 4 is considered to be ‘sensitive’)
same,actual phenotype resistance level,PI test sample 9,S/S (A fold resistance of less than or equal to 4 is considered to be ‘sensitive’)
same,actual phenotype resistance level,PI test sample 10,S/S (A fold resistance of less than or equal to 4 is considered to be ‘sensitive’)
same,actual phenotype resistance level,"PI test sample 11, listed as IDV",S (A fold resistance of less than or equal to 4 is considered to be ‘sensitive’)
same,actual phenotype resistance level,PI test sample 12,S/S (A fold resistance of less than or equal to 4 is considered to be ‘sensitive’)
same,actual phenotype resistance level,PI test sample 13,"R/R (if the value is greater than 10, it is considered to be ‘resistant’)"
same,actual phenotype resistance level,PI test sample 14,"R/R (if the value is greater than 10, it is considered to be ‘resistant’)"
same,actual phenotype resistance level,PI test sample 16,"R/R (if the value is greater than 10, it is considered to be ‘resistant’)"
same,actual phenotype resistance level,PI test sample 17,"R/R (if the value is greater than 10, it is considered to be ‘resistant’)"
same,actual phenotype resistance level,PI test sample 22,S (A fold resistance of less than or equal to 4 is considered to be ‘sensitive’)
same,actual phenotype resistance level,PI test sample 23,"R/R (if the value is greater than 10, it is considered to be ‘resistant’)"
same,actual phenotype resistance level,PI test sample 24,"R/R (if the value is greater than 10, it is considered to be ‘resistant’)"
same,actual phenotype resistance level,PI test sample 26,"R/R (if the value is greater than 10, it is considered to be ‘resistant’)"
same,actual phenotype resistance level,PI test sample 27,"R/R (if the value is greater than 10, it is considered to be ‘resistant’)"
same,actual phenotype resistance level,PI test sample 28,"R/R (if the value is greater than 10, it is considered to be ‘resistant’)"
same,actual phenotype resistance level,PI test sample 32,"R/R (if the value is greater than 10, it is considered to be ‘resistant’)"
same,actual phenotype resistance level,PI test sample 35,"R/R (if the value is greater than 10, it is considered to be ‘resistant’)"
same,actual phenotype resistance level,PI test sample 36,"R/R (if the value is greater than 10, it is considered to be ‘resistant’)"
same,actual phenotype resistance level,PI test sample 37,I/I (greater than 4 and less than 10 is considered to be ‘intermediate’)
same,actual phenotype resistance level,PI test sample 38,"R/R (if the value is greater than 10, it is considered to be ‘resistant’)"
same,actual phenotype resistance level,PI test sample 39,"R/R (if the value is greater than 10, it is considered to be ‘resistant’)"
same,actual phenotype resistance level,PI test sample 40,"R/R (if the value is greater than 10, it is considered to be ‘resistant’)"
same,actual phenotype resistance level,PI test sample 43,I/I (greater than 4 and less than 10 is considered to be ‘intermediate’)
same,actual phenotype resistance level,PI test sample 45,"R/R (if the value is greater than 10, it is considered to be ‘resistant’)"
same,actual phenotype resistance level,PI test sample 46,"R/R (if the value is greater than 10, it is considered to be ‘resistant’)"
same,actual phenotype resistance level,"PI test sample 47, listed as IDV","R/R (if the value is greater than 10, it is considered to be ‘resistant’)"
same,actual phenotype resistance level,PI test sample 48,"R/R (if the value is greater than 10, it is considered to be ‘resistant’)"
same,actual phenotype resistance level,PI test sample 49,"R/R (if the value is greater than 10, it is considered to be ‘resistant’)"
same,actual phenotype resistance level,PI test sample 51,"R/R (if the value is greater than 10, it is considered to be ‘resistant’)"
same,actual phenotype resistance level,PI test sample 53,"R/R (if the value is greater than 10, it is considered to be ‘resistant’)"
same,actual phenotype resistance level,Table 3 testing sample 1,"S/S (A fold resistance of less than or equal to 4 is considered to be “sensitive,”)"
same,actual phenotype resistance level,Table 3 testing sample 2,"S/S (A fold resistance of less than or equal to 4 is considered to be “sensitive,”)"
same,actual phenotype resistance level,Table 3 testing sample 5,"R/R (if the value is greater than 10, it is considered to be “resistant.”)"
same,actual phenotype resistance level,Table 3 testing sample 7,"S/S (A fold resistance of less than or equal to 4 is considered to be “sensitive,”)"
same,actual phenotype resistance level,Table 3 testing sample 9,"S/S (A fold resistance of less than or equal to 4 is considered to be “sensitive,”)"
same,actual phenotype resistance level,Table 3 testing sample 10,"S (A fold resistance of less than or equal to 4 is considered to be “sensitive,”)"
same,actual phenotype,"Table 13/14 sample 2: 10I,46I,48V,77I,82A,90M, 10E,58E,63T",S (A fold resistance of less than or equal to 4 is considered to be ‘sensitive’)
same,actual phenotype,"Table 13/14 sample 8: 10I,54V,71V,73S,84V,90M, 33M,63P",I (greater than 4 and less than 10 is considered to be ‘intermediate’)
same,actual phenotype,"Table 13/14 sample 13: 10I,36I,71T,90M, 63P,73T",I (greater than 4 and less than 10 is considered to be ‘intermediate’)
same,actual phenotype,"Table 13/14 sample 14: 10I,46I,71T,77I,90M, 57K,63P,93L",S (A fold resistance of less than or equal to 4 is considered to be ‘sensitive’)
same,actual phenotype,"Table 13/14 sample 17: 46I,77I,90M, 10F,20L,63P",I (greater than 4 and less than 10 is considered to be ‘intermediate’)
same,actual phenotype,"Table 13/14 sample 18: 36I,71T,90M, 63P,93L",S (A fold resistance of less than or equal to 4 is considered to be ‘sensitive’)
same,actual phenotype,"Table 13/14 sample 20: 77I,88S, 13V, 63P, 93L",S (A fold resistance of less than or equal to 4 is considered to be ‘sensitive’)
same,actual phenotype,"Table 13/14 sample 21: 10I,77I,84V,90M, 63Q",I (greater than 4 and less than 10 is considered to be ‘intermediate’)
same,actual phenotype,"Table 13/14 sample 22: 10I,20R,36I,71V,73S,84V,90M, 13V,63P","R (if the value is greater than 10, it is considered to be ‘resistant’)"
